In patent publication US4244883A, “2a,2b-Dihomo-15-alkyl-PGF2β compounds” (The Upjohn Company, priority 1979, dated 1981):

Tests used:
gastric lesions = assay: Cytoprotective effects: inhibition of ethanol-induced gastric lesions (ulcers) in female rats; format: in vivo, rat; details: 2 mg/kg oral; for inhibition at 2 mg/kg: Rattus norvegicus, female rats 205-220 g, 30 min before 1 ml ethanol (80%) orally, examined 1 h after ethanol, read-out: % Inhibition (percent reduction in the number of gastric lesions in the treated group as compared to the control group); for cytoprotective effect (in words): female rats, 80% ethanol-induced gastric lesions
Protocol: Female rats of 205-220 g are deprived of food during the morning. At 1500 hrs, water is removed and the animals are placed in individual cages which prevent them from consuming hair or feces. The following morning, the prostaglandin analogs are administered orally at a fixed dose of 2 mg/kg in 1 ml of water containing 5% ethanol and 1% emulphor. Emulphor EL-620 is used. Thirty minutes later, 1 ml of ethanol (80%) is given orally to induce gastric lesions. One hour after ethanol administration, the animals are sacrificed with carbon dioxide, their stomachs disected out and opened along the greater curvature. Visual examination with a binocular magnifier is undertaken to determine the presence of necrotic ulcerations. The average number of ulcers per stomach is recorded. The control group of rats receiving only vehicle (ethanol 5%, emulphor 1% in water) prior to the administration of 80% ethanol is employed. From the number of ulcerations in control group animals, a percent inhibition is determined which is the percent reduction in the number of gastric lesions in the treated group as compared to the control group.
Following the procedure of Example 1, 2a,2b-dihomo-15-epi-PGF2β, methyl ester is compared for gastrointestinal cytoprotective activity with 2a,2b-dihomo-15-epi-15-methyl-PGF2β, methyl ester.

intestinal lesions = details: rat; pre-treatment; Robert, et al., Gastroenterology 69:1045 (1974); cited from earlier work

SMILES: CCCCC[C@@H](O)/C=C/[C@@H]1[C@@H](C/C=C\CCCCCC(=O)OC)[C@H](O)C[C@H]1O [2a,2b-dihomo-15-epi-PGF2β, methyl ester]
- inhibition at 2 mg/kg (gastric lesions): 2%
- cytoprotective effect (in words) (gastric lesions): negligable cytoprotective effects

SMILES: CCCCC[C@H](O)/C=C/[C@@H]1[C@@H](C/C=C\CCCCCC(=O)OC)[C@H](O)C[C@H]1O [2a,2b-dihomo-PGF2β, methyl ester]
- inhibition at 2 mg/kg (gastric lesions): 32%
- cytoprotective effect (in words) (gastric lesions): only modest cytoprotective effects

SMILES: CCCCC[C@H](O)/C=C/[C@H]1[C@H](O)CC(=O)[C@@H]1C/C=C\CCCC(=O)O [PGE2]
- effect on indomethacin-induced intestinal lesions (in words) (intestinal lesions): effective in reducing indomethacin-inducedintestinal lesions

SMILES: CCCCC[C@@](C)(O)/C=C/[C@@H]1[C@@H](C/C=C\CCCCCC(=O)OC)[C@H](O)C[C@H]1O [2a,2b-dihomo-15-epi-15-methyl-PGF2β, methyl ester]
- inhibition at 2 mg/kg (gastric lesions): 100%
- cytoprotective effect (in words) (gastric lesions): totally cytoprotective

SMILES: CCCCC[C@](C)(O)/C=C/[C@@H]1[C@@H](C/C=C\CCCCCC(=O)OC)[C@H](O)C[C@H]1O [2a,2b-dihomo-15-methyl-PGF2β, methyl ester]
- inhibition at 2 mg/kg (gastric lesions): 96%
- cytoprotective effect (in words) (gastric lesions): virtually totally cytoprotective
